Reference: patent publication US20240209027A1, “PEPTIDE AND PEPTIDE-CONTAINING COMPOSITION” (PeptiAID Inc.,, priority 2021, published 2024)
Starred links: 1 amine or outer side, 2 acyl side, 3 side chain; linkers in the order of their positions; H or OH if unused. Positions of bridges follow the written chain, without caps; N, C: chain ends. Non-standard residues stand in square brackets, D forms with d. Residues, ends and D or L forms follow the SMILES beside them. Ala(piperidin-4-yl) = O=C([C@H](CC1CCN([*:3])CC1)N[*:1])[*:2]; Phe(4-COOH) = N[C@@H](Cc1ccc(C(=O)O)cc1)C(=O)O; Phe(4-F) = N[C@@H](Cc1ccc(F)cc1)C(=O)O; NMeE = CN[C@@H](CCC(=O)O)C(=O)O; Cha = N[C@@H](CC1CCCCC1)C(=O)O; Cit = NC(=O)NCCC[C@H](N)C(=O)O; NMeNle = CCCC[C@H](NC)C(=O)O; Aib = CC(C)(N)C(=O)O

Key:
Assay type in all cases: cell-based
[1] = target: SARS-CoV-2-derived S protein, Gamma strain (Severe acute respiratory syndrome coronavirus 2, UniProt P0DTC2, L18F/T20N/P26S/D138Y/R190S/K417T/E484K/N501Y/D614G/H655Y/T1027I/V1176F, form not given)
[2] = target: SARS-CoV-2-derived S protein, Beta strain (Severe acute respiratory syndrome coronavirus 2, UniProt P0DTC2, D80A/D215G/DEL241-243/K417N/E484K/N501Y/D614G/A701V, form not given)
[3] = system: SARS-CoV-2-derived S protein, Delta strain; settings: Table 3
[4] = target: SARS-CoV-2-derived S protein, Alpha strain (Severe acute respiratory syndrome coronavirus 2, UniProt P0DTC2, DEL69-70/DEL144-144/N501Y/A570D/D614G/P681H/T716I/S982A/D1118H, form not given)

Row | SMILES | Imax: % (at 500 nM) [1] [%] | Imax: % (at 500 nM) [2] [%] | IC50 [3] [nM] | Imax: % (at 500 nM) [3] [%] | Imax: % (at 500 nM) [4] [%]
2 | CCCC[C@H]1C(=O)NC(C)(C)C(=O)N[C@@H](CC2CCCCC2)C(=O)N[C@@H](Cc2ccc(F)cc2)C(=O)N[C@H](CC(=O)O)C(=O)N[C@@H](Cc2ccc(O)cc2)C(=O)N[C@@H](Cc2ccc(O)cc2)C(=O)N[C@@H](CCCNC(N)=O)C(=O)N[C@H](CCCCN)C(=O)N[C@@H](CC2CCCCC2)C(=O)N[C@H](C(=O)N[C@H](CCC(=O)O)C(=O)O)CSCC(=O)N(C)[C@@H](CCC(=O)O)C(=O)N1C [Peptide 5555_p028] ({CH2CO}-[NMeE][NMeNle][Aib][Cha][Phe(4-F)][dD]YY[Cit][dK][Cha]C[dE]-OH; thioether N-12) | 95 | 93 | […] | […] | 96
3 | CCCC[C@H]1C(=O)NC(C)(C)C(=O)N[C@@H](CC2CCCCC2)C(=O)N[C@@H](Cc2ccc(F)cc2)C(=O)NC(C)(C)C(=O)N[C@@H](Cc2ccc(O)cc2)C(=O)N[C@@H](Cc2ccc(O)cc2)C(=O)N[C@@H](Cc2ccc(C(=O)O)cc2)C(=O)N[C@@H](CC2CCNCC2)C(=O)N[C@@H](CC2CCCCC2)C(=O)N[C@H](C(=O)N[C@H](CCC(=O)O)C(N)=O)CSCC(=O)N(C)[C@@H](CCC(=O)O)C(=O)N1C [Peptide 5555_p020] ({CH2CO}-[NMeE][NMeNle][Aib][Cha][Phe(4-F)][Aib]YY[Phe(4-COOH)][Ala(piperidin-4-yl)][Cha]C[dE]-NH2; thioether N-12) | 100 | 100 | – | – | 100
